Measurements reported in patent US20250065017A1, “Fractionating Extracellular Matrix to Modulate Bioactivity and the Host Response” (University of Pittsburgh - Of the Commonwealth System of …, priority 2014, published 2025).

Columns and labels:
[1] = test system: brain derived microglia; test: PGE2 secretion in primary microglia; format: cell-based, rat; details: UBM hydrogel 0.5 mg/mL 48 hours; inhibitor pre-treatment 1 hour
Description: Primary microglia from rats were obtained from postnatal day 3 rat pup brains as previously described ([…], Xiao X, Hart RP, Schwartz M. Protective autoimmunity: interferon-gamma enables microglia to remove glutamate without evoking inflammatory mediators. J Neurochem 2005;92(5):997-1009). Whole brains from postnatal day 3 Sprague Dawley rat pups (Charles River) were harvested and minced after removal of the brain stem, olfactory bulbs, and meninges. Tissue was digested for 15 min in 0.25% trypsin/EDTA at 37° C. […] The suspension was centrifuged, diluted in culture media (DMEM/F12, 10% FBS, 2 mM L-glutamine, 1% penicillin/streptomycin), and grown to confluence at 37° C./5% CO2. Culture media was replaced every 2-3 days. At day 11-12 in vitro, enriched microglia were obtained by mechanical agitation (orbital shaker, 150 rpm, 37 C) for 2 hours. The media was collected after the shake-off step and centrifuged (1400 rpm for 5 minutes). The cell pellet was resuspended in culture media (RPMI 1640, 10% FBS, 1 mM L-glutamine, 1 mM sodium pyruvate, 50 μM beta-mercaptoethanol, 1% penicillin and streptomycin) and cells were plated at a density of 500,000/mL. […] Secreted factor concentrations in the culture supernatants were determined using commercially available ELISA kits (PGE2, PGF2α, ENZO Life Sciences) and IL-1RA (R&D Systems)) according to the manufacturer's instructions.

[2] = test system: THP1 cells; test: CD206 and CD86 expression by western blot; format: cell-based, human; details: Aspirin 200 μM with UBM hydrogel
Description: THP-1 human monocytes were obtained from the American Tissue Culture Collection (ATCC, Manassas, VA) and maintained in RPMI, 10% FBS, 1% penicillin/streptomycin, 2 mM L-glutamine, and 1 mM sodium pyruvate in a humidified atmosphere at 37° C. with 5% CO2. For experiments, 500,000 THP-1 cells/mL were plated with 320 nM phorbol 12-myristate 13-acetate (PMA) for 24 hours to induce differentiation into macrophages. Adherent macrophages were washed in PBS and placed in fresh media, followed by a 24 hour incubation to acquiesce.
THP1 macrophage-like cells prepared as described in the cell culture section had 200 μM Aspirin added (where appropriate) 1 hour prior to UBM hydrogel (0.5 mg/mL) treatment. Cells were then treated with UBM hydrogel for 4, 8, or 24 hours. At the specified time points, cells were washed extensively with 1× PBS and lysis buffer (50 mM Tris, 20 mM NaCl, 1% Triton X-100) was added. Cells were mechanically removed from the culture dish, transferred to centrifuge tubes and incubated on ice for 10 minutes. Lysates were spun down at 14000 rpm for 20 minutes at 4° C. to remove any debris. The clarified lysate was stored at −80° C. Lysates were diluted 1:1 in 2× Laemmli Sample Buffer (Bio-Rad, Hercules, CA) and boiled at 95° C. for 5 minutes. Samples were then resolved on 9% SDS-PAGE gels (National Diagnostics) and transferred to polyvinyldifluoride (PVDF, Millipore) membranes. Membranes were blocked with 1:1 Odyssey Blocking Buffer:1×PBS (Licor) overnight at 4° C. Blocked membranes were immunoblotted with either rabbit anti-human COX2 (1:5,000, Abcam), goat anti-human CD206 (1:3,000, Santa-Cruz), rabbit anti-human CD86 (1:5,000, Abcam), or mouse anti-human β-Actin (1:5,000, Abcam) in blocking buffer for 1 hour at room temperature with agitation. Membranes were extensively washed with TBST before the appropriate secondary antibodies (1:10,000, donkey anti-goat IR Dye 680, donkey-anti rabbit IR Dye 680, and donkey anti-mouse IR Dye 800, Licor) in imaging buffer (1:1 Odyssey Blocking Buffer, 0.02% SDS in TBST) were added for 30 minutes with agitation. […]

CC(=O)Oc1ccccc1C(=O)O [Aspirin] was tested, and the PGE2 production [1] was “reduced PGE2 production to baseline levels”, the “maximum increase in CD86 expression” value ([2]; at 24 hours) was 0.15 fold and the “reduction in CD206 expression” value ([2]; at 24 hours) was 91%. For the same compound, the CD206 expression ([2]; early time points) was “did not alter CD206 expression”.
